According to ChEMBL document CHEMBL4507289, “Data for DCP probe GSM1” (2021):

Experiments:
[1] = molecular target: Serine/threonine-protein kinase tousled-like 1 (Homo sapiens) (UniProt Q9UKI8); conditions: Compound concentration 1000.0 nM
[2] = system: Proto-oncogene tyrosine-protein kinase receptor Ret (Homo sapiens), P07949 [V804M]; conditions: Compound concentration 1000.0 nM
[3] = molecular target: Dual specificity mitogen-activated protein kinase kinase 2 (Homo sapiens) (UniProt P36507); conditions: Compound concentration 1000.0 nM
Chain of Dual specificity mitogen-activated protein kinase kinase 2 (Homo sapiens) (P36507 whole entry): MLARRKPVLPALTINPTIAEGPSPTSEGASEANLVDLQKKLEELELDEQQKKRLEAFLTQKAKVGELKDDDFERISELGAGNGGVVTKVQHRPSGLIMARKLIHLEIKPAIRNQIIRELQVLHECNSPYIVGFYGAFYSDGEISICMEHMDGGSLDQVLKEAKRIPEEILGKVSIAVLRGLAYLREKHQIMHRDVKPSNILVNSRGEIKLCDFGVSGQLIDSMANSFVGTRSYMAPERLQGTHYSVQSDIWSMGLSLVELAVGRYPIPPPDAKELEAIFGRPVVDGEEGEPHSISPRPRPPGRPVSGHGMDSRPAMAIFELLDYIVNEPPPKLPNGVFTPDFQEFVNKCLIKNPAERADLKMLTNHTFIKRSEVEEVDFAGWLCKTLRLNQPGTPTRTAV

[4] = molecular target: Receptor tyrosine-protein kinase erbB-3 (Homo sapiens) (UniProt P21860); conditions: Compound concentration 1000.0 nM
[5] = system: Tyrosine-protein kinase ABL1 (Homo sapiens), P00519 [F317L]; conditions: Compound concentration 1000.0 nM
[6] = system: Hepatocyte growth factor receptor (Homo sapiens), P08581 [Y1235D]; conditions: Compound concentration 1000.0 nM
[7] = system: ALK tyrosine kinase receptor (Homo sapiens), Q9UM73 [C1156Y]; conditions: Compound concentration 1000.0 nM
[8] = molecular target: Serine/threonine-protein kinase MAK (Homo sapiens) (UniProt P20794); conditions: Compound concentration 1000.0 nM
[9] = molecular target: Tyrosine-protein kinase ABL1 (Homo sapiens) (UniProt P00519); conditions: Compound concentration 1000.0 nM
[10] = molecular target: Phosphatidylinositol 4-phosphate 3-kinase C2 domain-containing subunit beta (Homo sapiens) (UniProt O00750); conditions: Compound concentration 1000.0 nM
[11] = molecular target: STE20-like serine/threonine-protein kinase (Homo sapiens) (UniProt Q9H2G2); conditions: Compound concentration 1000.0 nM
[12] = molecular target: Homeodomain-interacting protein kinase 3 (Homo sapiens) (UniProt Q9H422); conditions: Compound concentration 1000.0 nM
[13] = molecular target: Ephrin type-B receptor 6 (Homo sapiens) (UniProt O15197); conditions: Compound concentration 1000.0 nM
[14] = molecular target: Platelet-derived growth factor receptor alpha (Homo sapiens) (UniProt P16234); conditions: Compound concentration 1000.0 nM
[15] = molecular target: Transient receptor potential cation channel subfamily M member 6 (Homo sapiens) (UniProt Q9BX84); conditions: Compound concentration 1000.0 nM
[16] = system: Tyrosine-protein kinase ABL1 (Homo sapiens), P00519 [H396P]; conditions: Compound concentration 1000.0 nM
[17] = molecular target: Mitogen-activated protein kinase kinase kinase 7 (Homo sapiens) (UniProt O43318); conditions: Compound concentration 1000.0 nM
Chain of Mitogen-activated protein kinase kinase kinase 7 (Homo sapiens) (O43318 whole entry): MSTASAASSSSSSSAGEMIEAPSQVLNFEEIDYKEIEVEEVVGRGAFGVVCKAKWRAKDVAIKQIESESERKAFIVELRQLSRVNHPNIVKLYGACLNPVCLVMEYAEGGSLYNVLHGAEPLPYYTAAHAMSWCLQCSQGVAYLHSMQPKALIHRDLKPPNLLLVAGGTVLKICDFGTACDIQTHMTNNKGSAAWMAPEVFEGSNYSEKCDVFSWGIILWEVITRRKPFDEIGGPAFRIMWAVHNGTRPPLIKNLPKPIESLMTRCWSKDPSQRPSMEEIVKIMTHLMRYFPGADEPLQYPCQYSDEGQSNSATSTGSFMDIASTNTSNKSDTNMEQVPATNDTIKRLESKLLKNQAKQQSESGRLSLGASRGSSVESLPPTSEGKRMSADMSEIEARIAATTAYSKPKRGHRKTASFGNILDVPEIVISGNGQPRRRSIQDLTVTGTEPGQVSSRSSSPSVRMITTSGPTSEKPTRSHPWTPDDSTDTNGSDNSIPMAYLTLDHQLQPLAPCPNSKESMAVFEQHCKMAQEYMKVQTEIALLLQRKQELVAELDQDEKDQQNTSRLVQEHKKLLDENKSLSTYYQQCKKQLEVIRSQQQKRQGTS

[18] = system: Tyrosine-protein kinase ABL1 (Homo sapiens), P00519 [T315I]; conditions: Compound concentration 1000.0 nM
[19] = molecular target: Serine/threonine-protein kinase PLK2 (Homo sapiens) (UniProt Q9NYY3); conditions: Compound concentration 1000.0 nM
[20] = system: Phosphatidylinositol 4,5-bisphosphate 3-kinase catalytic subunit alpha isoform (Homo sapiens), P42336 [C420R]; conditions: Compound concentration 1000.0 nM
Chain of Phosphatidylinositol 4,5-bisphosphate 3-kinase catalytic subunit alpha isoform (Homo sapiens), P42336 [C420R] (P42336 whole entry C420R, canonical isoform): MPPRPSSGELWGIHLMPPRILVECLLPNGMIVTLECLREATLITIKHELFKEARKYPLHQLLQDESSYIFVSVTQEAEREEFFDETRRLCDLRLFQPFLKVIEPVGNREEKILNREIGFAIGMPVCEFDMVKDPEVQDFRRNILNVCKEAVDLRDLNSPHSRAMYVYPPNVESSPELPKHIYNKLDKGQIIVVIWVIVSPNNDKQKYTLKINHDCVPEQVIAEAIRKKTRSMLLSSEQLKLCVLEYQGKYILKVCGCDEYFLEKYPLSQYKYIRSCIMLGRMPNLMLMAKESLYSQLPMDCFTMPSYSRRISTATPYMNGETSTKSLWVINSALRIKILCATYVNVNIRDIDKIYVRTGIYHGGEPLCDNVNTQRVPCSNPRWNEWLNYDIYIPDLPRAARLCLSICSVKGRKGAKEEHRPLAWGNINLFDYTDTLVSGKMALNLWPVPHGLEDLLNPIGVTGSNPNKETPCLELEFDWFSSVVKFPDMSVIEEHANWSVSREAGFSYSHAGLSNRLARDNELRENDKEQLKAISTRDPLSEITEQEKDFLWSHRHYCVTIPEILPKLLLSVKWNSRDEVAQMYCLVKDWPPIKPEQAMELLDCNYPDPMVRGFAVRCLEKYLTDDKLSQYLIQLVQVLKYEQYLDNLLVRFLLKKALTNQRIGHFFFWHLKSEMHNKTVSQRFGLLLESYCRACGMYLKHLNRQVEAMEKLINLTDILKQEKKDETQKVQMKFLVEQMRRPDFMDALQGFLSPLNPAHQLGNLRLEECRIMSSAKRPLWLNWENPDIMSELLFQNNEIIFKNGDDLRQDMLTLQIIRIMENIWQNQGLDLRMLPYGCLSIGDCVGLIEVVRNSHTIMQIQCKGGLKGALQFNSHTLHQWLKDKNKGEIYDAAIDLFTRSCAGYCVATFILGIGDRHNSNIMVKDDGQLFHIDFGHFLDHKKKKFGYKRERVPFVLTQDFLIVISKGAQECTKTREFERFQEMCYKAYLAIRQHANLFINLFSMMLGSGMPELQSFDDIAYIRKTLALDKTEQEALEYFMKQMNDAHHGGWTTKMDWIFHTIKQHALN

[21] = molecular target: Ribosomal protein S6 kinase beta-1 (Homo sapiens) (UniProt P23443); conditions: Compound concentration 1000.0 nM
[22] = molecular target: MAP kinase-interacting serine/threonine-protein kinase 2 (Homo sapiens) (UniProt Q9HBH9); conditions: Compound concentration 1000.0 nM
[23] = molecular target: T1, Sigma intracellular receptor 2 (Homo sapiens, UniProt Q5BJF2); experiment: GPCRScan assay: inhibition of Sigma 2; design: radioligand conc. used [nm] 5.0, parental cells HEKT
T1 sequence (Q5BJF2 whole entry): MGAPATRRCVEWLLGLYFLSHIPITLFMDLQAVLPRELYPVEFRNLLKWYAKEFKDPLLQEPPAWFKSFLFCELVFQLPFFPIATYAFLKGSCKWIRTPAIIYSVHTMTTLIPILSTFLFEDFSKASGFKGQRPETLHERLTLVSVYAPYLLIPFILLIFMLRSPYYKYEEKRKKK

[24] = molecular target: Dual specificity testis-specific protein kinase 1 (Homo sapiens) (UniProt Q15569); conditions: Compound concentration 1000.0 nM
Chain of Dual specificity testis-specific protein kinase 1 (Homo sapiens) (Q15569 whole entry, looked up): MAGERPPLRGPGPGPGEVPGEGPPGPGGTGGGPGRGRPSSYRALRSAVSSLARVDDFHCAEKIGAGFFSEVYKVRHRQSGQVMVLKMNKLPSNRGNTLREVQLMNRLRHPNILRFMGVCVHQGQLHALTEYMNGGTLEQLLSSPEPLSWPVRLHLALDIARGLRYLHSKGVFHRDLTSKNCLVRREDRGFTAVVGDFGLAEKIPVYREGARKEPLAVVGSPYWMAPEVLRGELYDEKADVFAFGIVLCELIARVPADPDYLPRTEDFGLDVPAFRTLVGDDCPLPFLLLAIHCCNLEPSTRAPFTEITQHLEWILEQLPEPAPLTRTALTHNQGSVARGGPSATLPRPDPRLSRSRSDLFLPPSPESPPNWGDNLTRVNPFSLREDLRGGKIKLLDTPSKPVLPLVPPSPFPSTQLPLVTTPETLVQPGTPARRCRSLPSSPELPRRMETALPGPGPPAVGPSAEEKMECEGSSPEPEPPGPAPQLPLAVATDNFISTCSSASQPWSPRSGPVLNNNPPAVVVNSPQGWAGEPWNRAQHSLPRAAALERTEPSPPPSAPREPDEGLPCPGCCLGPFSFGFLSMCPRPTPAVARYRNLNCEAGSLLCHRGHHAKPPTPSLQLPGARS

[25] = molecular target: Serine/threonine-protein kinase D3 (Homo sapiens) (UniProt O94806); conditions: Compound concentration 1000.0 nM
[26] = molecular target: Macrophage colony-stimulating factor 1 receptor (Homo sapiens) (UniProt P07333); conditions: Compound concentration 1000.0 nM
Chain of Macrophage colony-stimulating factor 1 receptor (Homo sapiens) (P07333 whole entry): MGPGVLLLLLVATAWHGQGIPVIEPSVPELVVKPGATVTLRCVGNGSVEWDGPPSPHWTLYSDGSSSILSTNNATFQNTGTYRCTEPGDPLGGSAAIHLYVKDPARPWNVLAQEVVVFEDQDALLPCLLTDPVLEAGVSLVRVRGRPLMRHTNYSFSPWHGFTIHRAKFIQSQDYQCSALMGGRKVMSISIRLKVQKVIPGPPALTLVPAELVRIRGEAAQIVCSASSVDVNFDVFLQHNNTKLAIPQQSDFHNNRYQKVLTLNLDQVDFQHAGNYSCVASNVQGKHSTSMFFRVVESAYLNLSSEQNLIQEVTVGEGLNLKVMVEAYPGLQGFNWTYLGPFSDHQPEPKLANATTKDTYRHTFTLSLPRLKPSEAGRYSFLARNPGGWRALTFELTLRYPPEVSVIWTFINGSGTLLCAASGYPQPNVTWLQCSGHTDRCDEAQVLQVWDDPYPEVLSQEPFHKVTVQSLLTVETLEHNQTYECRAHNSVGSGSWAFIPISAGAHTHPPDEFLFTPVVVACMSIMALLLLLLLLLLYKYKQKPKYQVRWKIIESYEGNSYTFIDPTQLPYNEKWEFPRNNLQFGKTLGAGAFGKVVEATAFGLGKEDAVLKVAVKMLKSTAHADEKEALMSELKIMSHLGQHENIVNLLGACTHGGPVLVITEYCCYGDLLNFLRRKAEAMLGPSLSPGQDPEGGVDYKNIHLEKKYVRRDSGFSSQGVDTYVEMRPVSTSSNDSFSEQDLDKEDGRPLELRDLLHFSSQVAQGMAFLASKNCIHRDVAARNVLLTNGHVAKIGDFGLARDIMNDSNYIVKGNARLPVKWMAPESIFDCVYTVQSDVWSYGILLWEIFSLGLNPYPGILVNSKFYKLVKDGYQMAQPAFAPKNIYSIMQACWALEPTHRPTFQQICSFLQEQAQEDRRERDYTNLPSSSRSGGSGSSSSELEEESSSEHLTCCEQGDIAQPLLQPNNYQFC

[27] = system: Receptor-type tyrosine-protein kinase FLT3 (Homo sapiens), P36888 [D835V]; conditions: Compound concentration 1000.0 nM
[28] = molecular target: Serine/threonine-protein kinase PAK 6 (Homo sapiens) (UniProt Q9NQU5); conditions: Compound concentration 1000.0 nM
[29] = molecular target: Phosphatidylinositol 3-kinase catalytic subunit type 3 (Homo sapiens) (UniProt Q8NEB9); conditions: Compound concentration 1000.0 nM
[30] = molecular target: Calcium/calmodulin-dependent protein kinase type II subunit delta (Homo sapiens) (UniProt Q13557); conditions: Compound concentration 1000.0 nM
[31] = molecular target: D(3) dopamine receptor (Homo sapiens) (UniProt P35462); conditions: Compound concentration 10.0 uM
[32] = molecular target: Tyrosine-protein kinase Fer (Homo sapiens) (UniProt P16591); conditions: Compound concentration 1000.0 nM
[33] = molecular target: Serine/threonine-protein kinase WNK3 (Homo sapiens) (UniProt Q9BYP7); conditions: Compound concentration 1000.0 nM
[34] = system: Epidermal growth factor receptor (Homo sapiens), P00533 [T790M]; conditions: Compound concentration 1000.0 nM
[35] = molecular target: T1, Sigma intracellular receptor 2; conditions: Compound concentration 10.0 uM
[36] = molecular target: Macrophage colony-stimulating factor 1 receptor (Homo sapiens) (UniProt P07333); conditions: Compound concentration 1000.0 nM; remark: listed apart in the source
[37] = molecular target: Calcium/calmodulin-dependent protein kinase type 1G (Homo sapiens) (UniProt Q96NX5); conditions: Compound concentration 1000.0 nM
[38] = molecular target: Cyclin-dependent kinase-like 5 (Homo sapiens) (UniProt O76039); conditions: Compound concentration 1000.0 nM
Chain of Cyclin-dependent kinase-like 5 (Homo sapiens) (O76039 whole entry): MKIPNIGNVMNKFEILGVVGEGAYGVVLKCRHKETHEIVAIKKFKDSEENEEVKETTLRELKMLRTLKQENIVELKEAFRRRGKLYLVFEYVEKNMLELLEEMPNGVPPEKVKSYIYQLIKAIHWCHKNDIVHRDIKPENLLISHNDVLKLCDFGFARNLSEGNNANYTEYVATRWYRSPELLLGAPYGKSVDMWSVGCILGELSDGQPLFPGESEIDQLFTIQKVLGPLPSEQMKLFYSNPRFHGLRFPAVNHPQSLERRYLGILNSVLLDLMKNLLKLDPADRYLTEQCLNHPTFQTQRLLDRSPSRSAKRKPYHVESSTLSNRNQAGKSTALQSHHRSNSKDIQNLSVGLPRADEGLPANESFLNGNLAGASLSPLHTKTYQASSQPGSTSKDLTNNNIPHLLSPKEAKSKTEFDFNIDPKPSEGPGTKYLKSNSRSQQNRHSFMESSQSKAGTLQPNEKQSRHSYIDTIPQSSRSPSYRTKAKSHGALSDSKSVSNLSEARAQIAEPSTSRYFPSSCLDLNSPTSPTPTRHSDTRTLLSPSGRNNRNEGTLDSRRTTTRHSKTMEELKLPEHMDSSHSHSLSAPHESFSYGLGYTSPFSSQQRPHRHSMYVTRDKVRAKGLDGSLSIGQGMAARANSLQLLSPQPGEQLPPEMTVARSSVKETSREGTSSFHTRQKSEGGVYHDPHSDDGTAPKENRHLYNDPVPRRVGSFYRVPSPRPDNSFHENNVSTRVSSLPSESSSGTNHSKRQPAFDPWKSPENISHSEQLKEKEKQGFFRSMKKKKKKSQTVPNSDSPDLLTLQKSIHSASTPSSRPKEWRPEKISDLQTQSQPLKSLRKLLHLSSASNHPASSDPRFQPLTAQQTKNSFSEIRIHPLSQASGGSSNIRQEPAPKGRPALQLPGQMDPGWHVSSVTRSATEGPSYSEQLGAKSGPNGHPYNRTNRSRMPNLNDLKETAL

[39] = system: Tyrosine-protein kinase ABL1 (Homo sapiens), P00519 [H396P]; conditions: Compound concentration 1000.0 nM; remark: listed apart in the source
[40] = molecular target: Serine/threonine-protein kinase mTOR (Homo sapiens) (UniProt P42345); conditions: Compound concentration 1000.0 nM
[41] = molecular target: Cyclin-dependent kinase 2 (Homo sapiens) (UniProt P24941); conditions: Compound concentration 1000.0 nM
[42] = molecular target: Tyrosine-protein kinase CSK (Homo sapiens) (UniProt P41240); conditions: Compound concentration 1000.0 nM
[43] = molecular target: Discoidin domain-containing receptor 2 (Homo sapiens) (UniProt Q16832); conditions: Compound concentration 1000.0 nM
[44] = molecular target: Aurora kinase C (Homo sapiens) (UniProt Q9UQB9); conditions: Compound concentration 1000.0 nM
[45] = molecular target: Histamine H1 receptor (Homo sapiens) (UniProt P35367); conditions: Compound concentration 10.0 uM

## COc1cc(-c2cn([C@H]3CCc4ccccc4N(CC(F)(F)F)C3=O)nn2)ccc1-n1ccc(C)n1
[1]
  residual activity: 84%
[2]
  residual activity: 100%
[3]
  residual activity: 98%
[4]
  residual activity: 77%
[5]
  residual activity: 64%
[6]
  residual activity: 93%
[7]
  residual activity: 100%
[8]
  residual activity: 99%
[9]
  residual activity: 75%
[10]
  residual activity: 100%
[11]
  residual activity: 100%
[12]
  residual activity: 83%
[13]
  residual activity: 100%
[14]
  residual activity: 88%
[15]
  residual activity: 100%
[16]
  residual activity: 70%
[17]
  residual activity: 86%
[18]
  residual activity: 77%
[19]
  residual activity: 100%
[20]
  residual activity: 68%
[21]
  residual activity: 100%
[22]
  residual activity: 66%
[23]; read-out: Ki
  Ki: 835 nM
[23]; read-out: pKi (converted)
  Ki: 741 nM
[24]
  residual activity: 93%
[25]
  residual activity: 100%
[26]
  residual activity: 92%
[27]
  residual activity: 80%
[28]
  residual activity: 100%
[29]
  residual activity: 100%
[30]
  residual activity: 100%
[31]
  inhibition: 22%
[32]
  residual activity: 100%
[33]
  residual activity: 100%
[34]
  residual activity: 59%
[35]
  inhibition: 72%
[36]
  residual activity: 93%
[37]
  residual activity: 100%
[38]
  residual activity: 87%
[39]
  residual activity: 47%
[40]
  residual activity: 100%
[41]
  residual activity: 100%
[42]
  residual activity: 100%
[43]
  residual activity: 99%
[44]
  residual activity: 100%
[45]
  inhibition: 9.72%

## COc1cc(-c2cn([C@H]3CCc4c(F)cccc4N(CC(F)(F)F)C3=O)nn2)ccc1-n1cnc(C)c1
[1]
  residual activity: 100%
[2]
  residual activity: 88%
[3]
  residual activity: 100%
[4]
  residual activity: 98%
[5]
  residual activity: 85%
[6]
  residual activity: 100%
[7]
  residual activity: 100%
[8]
  residual activity: 100%
[9]
  residual activity: 100%
[10]
  residual activity: 100%
[11]
  residual activity: 100%
[12]
  residual activity: 100%
[13]
  residual activity: 100%
[14]
  residual activity: 100%
[15]
  residual activity: 100%
[16]
  residual activity: 100%
[17]
  residual activity: 100%
[18]
  residual activity: 85%
[19]
  residual activity: 100%
[20]
  residual activity: 75%
[21]
  residual activity: 100%
[22]
  residual activity: 76%
[23]; read-out: Ki
  Ki: 890 nM
[24]
  residual activity: 100%
[25]
  residual activity: 100%
[26]
  residual activity: 86%
[27]
  residual activity: 97%
[28]
  residual activity: 100%
[29]
  residual activity: 100%
[30]
  residual activity: 100%
[31]
  inhibition: 3.33%
[32]
  residual activity: 100%
[33]
  residual activity: 100%
[34]
  residual activity: 83%
[35]
  inhibition: 50%
[36]
  residual activity: 100%
[37]
  residual activity: 100%
[38]
  residual activity: 91%
[39]
  residual activity: 52%
[40]
  residual activity: 100%
[41]
  residual activity: 100%
[42]
  residual activity: 100%
[43]
  residual activity: 100%
[44]
  residual activity: 100%
[45]
  inhibition: 7.55%
